Measured values as given in ChEMBL document CHEMBL5113408, “Design, synthesis and antitumour activity of novel 5(6)-amino-benzimidazolequinones containing a fused morpholine” (Eur J Med Chem, 2022).
Calls of active or inactive are those of the source. The calls are words filed in the database; no cut-off is given here.

What was measured:
[1] = Toxicity in BALB/c mouse xenografted with human MGC-803 cells assessed as effect on spleen at 10 to 20 mg/kg, ip administered once every two days measured after 15 days by H and E staining based assay; format: organism-based; conditions: in vivo, 360 h, dose 10-20 mg/kg, time 15 day
MGC-803 [2] = experiment: Induction of cell cycle arrest in human MGC-803 cells assessed as accumulation of cells at G2/M phase at 4 uM incubated for 36 hrs by PI staining based flow cytometry analysis (reference value: 20.5%); format: functional
MGC-803 [3] = experiment: Induction of cell cycle arrest in human MGC-803 cells assessed as accumulation of cells at G2/M phase at 2 uM incubated for 36 hrs by PI staining based flow cytometry analysis (reference value: 20.5%); format: functional
HGC-27 [4] = experiment: Antiproliferative activity against human HGC-27 cells assessed as inhibition of cell growth incubated for 72 hrs by SRB assay; format: functional, cell-based; conditions: HGC-27, 72 h
HGC-27 [5] = experiment: Induction of apoptosis in human HGC-27 cells assessed as decrease in caspase 7 protein expression level at 1 to 4 uM incubated for 48 hrs by Western blot analysis; format: functional, cell-based; conditions: dose 1-4 µM
HGC-27 [6] = experiment: Induction of apoptosis in human HGC-27 cells assessed as increase in bax/bcl-2 expression level at 1 to 4 uM incubated for 48 hrs by Western blot analysis; format: functional, cell-based; conditions: dose 1-4 µM
HGC-27 [7] = experiment: Induction of DNA damage in human HGC-27 cells assessed as increase in gamma-H2AX generation incubated for 24 hrs by immunofluorescence analysis; format: functional, cell-based
HGC-27 [8] = experiment: Induction of cell cycle arrest in human HGC-27 cells assessed as accumulation of cells at G1 phase at 1 uM incubated for 36 hrs by PI staining based flow cytometry analysis (reference value: 49.6%); format: functional
MGC-803 [9] = experiment: Induction of cell cycle arrest in human MGC-803 cells assessed as decrease in cyclin-B1 level at 1 to 4 uM by Western blot analysis; format: functional, cell-based; conditions: dose 1-4 µM
HGC-27 [10] = experiment: Induction of cell cycle arrest in human HGC-27 cells assessed as accumulation of cells at G1 phase at 4 uM incubated for 36 hrs by PI staining based flow cytometry analysis (reference value: 49.6%); format: functional
MGC-803 [11] = experiment: Induction of apoptosis in human MGC-803 cells incubated for 48 hrs by Annexin-V FITC staining based flow cytometry analysis; format: functional, cell-based; conditions: dose 1-4 µM, DDE = dose-dependent effect
HGC-27 [12] = experiment: Induction of DNA damage in human HGC-27 cells assessed as increase in gamma-H2AX generation incubated for 48 hrs by Western blot analysis; format: functional, cell-based; conditions: DDE = dose-dependent effect
MGC-803 [13] = experiment: Induction of cell cycle arrest in human MGC-803 cells assessed as accumulation of cells at G1 phase at 4 uM incubated for 36 hrs by PI staining based flow cytometry analysis (reference value: 45.8%); format: functional
MGC-803 [14] = experiment: Induction of cell cycle arrest in human MGC-803 cells assessed as accumulation of cells at G1 phase at 1 uM incubated for 36 hrs by PI staining based flow cytometry analysis (reference value: 45.8%); format: functional
MGC-803 [15] = experiment: Induction of cell cycle arrest in human MGC-803 cells assessed as accumulation of cells at G1 phase at 2 uM incubated for 36 hrs by PI staining based flow cytometry analysis (reference value: 45.8%); format: functional
HGC-27 [16] = experiment: Inhibition of colony formation in human HGC-27 cells incubated for 24 hrs with fresh medium replacement for every two days measured for 11 days by crystal voilet staining based assay; format: functional, cell-based; conditions: dose 0.5-2 µM, time 11.0 day, DDE = dose-dependent effect
HGC-27 [17] = experiment: Activation of ROS/JNK signalling in human HGC-27 cells assessed as increase in p-ASK1 level by Western blot analysis; format: cell-based; conditions: filed as activator, dose 1-4 µM, DDE = dose-dependent effect
MGC-803 [18] = experiment: Induction of cell cycle arrest in human MGC-803 cells assessed as accumulation of cells at G2/M phase at 1 uM incubated for 36 hrs by PI staining based flow cytometry analysis (reference value: 20.5%); format: functional
HGC-27 [19] = experiment: Induction of cell cycle arrest in human HGC-27 cells assessed as accumulation of cells at G2/M phase at 1 uM incubated for 36 hrs by PI staining based flow cytometry analysis (reference value: 26.2%); format: functional
ECa-109 cell line = experiment: Antiproliferative activity against human EC109 cells assessed as inhibition of cell growth by SRB assay; format: functional, cell-based
MGC-803 [20] = experiment: Induction of apoptosis in human MGC-803 cells incubated for 48 hrs in presence of NAC by Annexin V-FITC and PI staining based flow cytometry analysis; format: functional
MGC-803 [21] = experiment: Inhibition of colony formation in human MGC-803 cells incubated for 24 hrs with fresh medium replacement for every two days measured for 11 days by crystal voilet staining based assay; format: functional, cell-based; conditions: dose 0.5-2 µM, time 11.0 day, DDE = dose-dependent effect
MGC-803 [22] = experiment: Induction of cell cycle arrest in human MGC-803 cells assessed as accumulation of cells at S phase at 4 uM incubated for 36 hrs by PI staining based flow cytometry analysis (reference value: 20.5%); format: functional
MGC-803 [23] = experiment: Induction of cell cycle arrest in human MGC-803 cells assessed as decrease in p-cdc25c level at 1 to 4 uM by Western blot analysis; format: functional, cell-based; conditions: dose 1-4 µM
MGC-803 [24] = experiment: Induction of ROS generation in human MGC-803 cells at 1 to 4 uM incubated for 24 hrs by flow cytometry analysis; format: functional, cell-based; conditions: dose 1-4 µM
MGC-803 [25] = experiment: Induction of apoptosis in human MGC-803 cells assessed as decrease in caspase 7 protein expression level at 1 to 4 uM incubated for 48 hrs by Western blot analysis; format: functional, cell-based; conditions: dose 1-4 µM
MGC-803 [26] = experiment: Induction of cell cycle arrest in human MGC-803 cells assessed as decrease in p-cdc2 level at 1 to 4 uM by Western blot analysis; format: functional, cell-based; conditions: dose 1-4 µM
HGC-27 [27] = experiment: Activation of ROS/JNK signalling in human HGC-27 cells assessed as increase in p-JNK level at 1 to 4 uM by Western blot analysis; format: cell-based; conditions: filed as activator, dose 1-4 µM
MGC-803 [28] = experiment: Induction of cell cycle arrest in human MGC-803 cells assessed as accumulation of cells at S phase at 2 uM incubated for 36 hrs by PI staining based flow cytometry analysis (reference value: 20.5%); format: functional
MGC-803 [29] = experiment: Antitumor activity against human MGC-803 cells xenografted with BALB/c mouse assessed as wrinkled nuclei at 10 to 20 mg/kg, ip administered once every two days; format: functional, organism-based; conditions: dose 10-20 mg/kg
[30] = Toxicity in BALB/c mouse xenografted with human MGC-803 cells assessed as effect on liver at 10 to 20 mg/kg, ip administered once every two days measured after 15 days by H and E staining based assay; format: organism-based; conditions: in vivo, 360 h, dose 10-20 mg/kg, time 15 day
HGC-27 [31] = experiment: Induction of cell cycle arrest in human HGC-27 cells assessed as accumulation of cells at S phase at 2 uM incubated for 36 hrs by PI staining based flow cytometry analysis (reference value: 8.87%); format: functional
MGC-803 [32] = experiment: Induction of apoptosis in human MGC-803 cells assessed as increase in bax/bcl-2 expression level at 1 to 4 uM incubated for 48 hrs by Western blot analysis; format: functional, cell-based; conditions: dose 1-4 µM
MGC-803 [33] = experiment: Induction of DNA damage in human MGC-803 cells assessed as increase in gamma-H2AX generation incubated for 48 hrs by Western blot analysis; format: functional, cell-based; conditions: DDE = dose-dependent effect
HGC-27 [34] = experiment: Induction of DNA damage in human HGC-27 cells assessed as increase in p-Chk generation incubated for 48 hrs by Western blot analysis; format: functional, cell-based; conditions: DDE = dose-dependent effect

Which results are given for `Cc1ccc(NC2=CC(=O)c3nc4n(c3C2=O)[C@H]2OC[C@@H](O)[C@H]2OC4)cc1C`?
Activity [1]: Non-Toxic; Activity (MGC-803 [2]): 28.2%; Activity (MGC-803 [3]): 24%; IC50 (HGC-27 [4]): 1740 nM; Activity (HGC-27 [5]): Active; Activity (HGC-27 [6]): Active; Activity (HGC-27 [7]): Active; Activity (HGC-27 [8]): 49.3%; Activity (MGC-803 [9]): Active; Activity (HGC-27 [10]): 28%; Activity (MGC-803 [11]): Dde; Activity (HGC-27 [12]): Dde; Activity (MGC-803 [13]): 30.8%; Activity (MGC-803 [14]): 33.6%; Activity (MGC-803 [15]): 29.2%; inhibition (HGC-27 [16]): Dde; Activity (HGC-27 [17]): Dde; Activity (MGC-803 [18]): 23.5%; Activity (HGC-27 [19]): 28.8%; IC50 (ECa-109 cell line): 2820 nM; Activity (MGC-803 [20]): 9.29%; inhibition (MGC-803 [21]): Dde; Activity (MGC-803 [22]): 34.1%; Activity (MGC-803 [23]): Active; Activity (MGC-803 [24]): Active; Activity (MGC-803 [25]): Active; Activity (MGC-803 [26]): Active; Activity (HGC-27 [27]): Active; Activity (MGC-803 [28]): 39.3%; Activity (MGC-803 [29]): Active; Activity [30]: Non-Toxic; Activity (HGC-27 [31]): 10.7%; Activity (MGC-803 [32]): Active; Activity (MGC-803 [33]): Dde; Activity (HGC-27 [34]): Dde
